This assay has as its target T1, FPR2 (Homo sapiens, UniProt P25090).
T1 construct: expressed in transfected cells
T1 sequence (P25090 1-351): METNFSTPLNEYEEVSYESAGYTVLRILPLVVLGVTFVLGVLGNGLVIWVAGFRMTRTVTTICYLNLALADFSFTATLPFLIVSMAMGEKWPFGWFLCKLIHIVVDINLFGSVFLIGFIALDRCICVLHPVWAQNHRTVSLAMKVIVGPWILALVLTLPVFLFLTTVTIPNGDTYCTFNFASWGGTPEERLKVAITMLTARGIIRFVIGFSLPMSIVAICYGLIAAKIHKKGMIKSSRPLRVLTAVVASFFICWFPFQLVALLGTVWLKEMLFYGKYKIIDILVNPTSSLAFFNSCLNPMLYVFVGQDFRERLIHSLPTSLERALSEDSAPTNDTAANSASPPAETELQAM
The assay is described as follows: FLIPR Tetra calcium activity assay in CHO-Gα16 cells stably expressing FPR2. The assay is classed as cell-based. On the procedure:
CHO-Gα16 cells stably expressing FPR2 were cultured in F12 media (10% FBS, 1% PSA, 400 μg/ml geneticin and 50 μg/ml hygromycin). In general, the day before the experiment, 18,000 cells/well were plated in a 384-well clear bottom poly-D-lysine coated plate. The following day the screening compound-induced calcium activity was assayed on a FLIPR^Tetra. The drug plates were prepared in 384-well microplates using EP3 and MultiPROBE robotic liquid handling systems. Compounds were tested at concentrations ranging from 0.61 to 10,000 nM. Results are expressed as EC50 (nM) and % efficacy values.

For the compound `CCOC(=O)CCNCCC1(CC)NC(=O)N(NC(=O)Nc2ccc(Br)cc2)C1=O` (centres unmarked) [Compound 1, Ethyl 3-{[2-(1-{[(4-Bromophenyl)carbamoyl]amino}-4-ethyl-2,5-dioxoimidazolidin-4-yl)ethyl]amino}propanoate], the “FPR2 Gα16-CHO (% eff)” value (% efficacy, calcium activity) is on record as “(0.97) %”. Further, the EC50 (as a rule, the concentration that produces a half-maximal response) (compound-induced calcium activity, tested at 0.61 to 10,000 nM) stood at 49 nM.

The values above are taken from patent US20160332972A1, “UREA HYDANTOIN DERIVATIVES AS FORMYL PEPTIDE MODULATORS” (ALLERGAN, INC., priority 2014, published 2016).
